[ ]: non-standard residue; d: D form. Aib = CC(C)(N)C(=O)O
Experiments:
[1] = test system: Akt (Ser473) phosphorylation; experiment: Akt phosphorylation by Western blot in RBL-2H3/ETFR cells; type: cell-based, rat; settings: 0 to 10 minutes
Protocol: RBL-2H3/ETFR grown to semi-confluence, were exposed to DMEM alone, 10 nM fMLF with/without 10 nM RI-3 at 37 °C in humidified air with 5% CO2. At the indicated times, cells were lysed in RIPA buffer and cell lysate protein content was measured by a colorimetric assay. Western blot analysis of AKT phosphorylation was performed as previously described using anti-phospho-Akt (Ser473) (pAKT) Ab (Cell Signaling) and anti-Akt mAb (R&D System). The effects of fMLF with/without 10 nM RI-3 were analyzed at the level of global kinase phosphorylation, using the dot-blot Proteome Profiler^TM Array Human PhosphoKinase Array Kit (R&D Systems), according to manufacturer’s instructions. Briefly, 300 µg of protein were applied on each membrane and the signals were detected as described for Western blot. The pixel density of each spot was measured using NIH Image 1.62 software. The intensity of positive control spots was used to normalize results between the four membranes. The intensity for each spot was then averaged over the duplicate spots.

HT1080 cells = experiment: Cell proliferation, MTS assay; type: cell-based, human; settings: 10 µM in growth medium, replaced every 24 hr
Protocol: (§1) Cell proliferation was assessed using the xCELLigence RTCA technology as described. Cells (2 × 10^3/well) were seeded in E-well plates in growth medium and left to growth for 85 hr in the presence or the absence of 10 µM RI-3. For MTS assay, cells seeded on plates in growth medium plus/minus 10 µM RI-3, were allowed to proliferate at 37 °C in 5% CO2 and the absorbance of adherent cells stained with tetrazolium/formazan was assessed with a microplate reader. In both cases, medium with or without RI-3 was replaced every 24 hr. Data are the means ± SD of three independent experiments, performed in triplicate.

cell proliferation = experiment: Cell proliferation, xCELLigence RTCA; type: cell-based; settings: 10 µM in growth medium, 85 hr, replaced every 24 hr
Protocol: as §1

For “Ac-[dY][dR][Aib][dR]-NH2 (SMILES CC(=O)N[C@H](Cc1ccc(O)cc1)C(=O)N[C@H](CCCNC(=N)N)C(=O)NC(C)(C)C(=O)N[C@H](CCCNC(=N)N)C(N)=O) [RI-3]”, the “effect on fMLF-induced Akt phosphorylation” value ([1]; 10 nM fMLF with 10 nM peptide) was “consistently decreased”, the “effect of peptide alone on Akt phosphorylation” value ([1]; 10 nM, no fMLF) was “did not affect Akt phosphorylation” and the “effect on number of metabolically active cells (MTS)” value (HT1080 cells) was “no difference was apparent”. For the same substance, the “effect on cell proliferation and doubling times (xCELLigence)” value (cell proliferation) was “no difference was apparent”.

Source: publication PMC5430962, “Retro-inverso Urokinase Receptor Antagonists for the Treatment of Metastatic Sarcomas” (Scientific Reports, 2017)
